Laboratory results as given in ChEMBL document CHEMBL4610071, “Ancistrosecolines A-F, Unprecedented seco-Naphthylisoquinoline Alkaloids from the Roots of Ancistrocladus abbreviatus, with Apoptosis-Inducing Potential against HeLa Cancer Cells” (J Nat Prod, 2020).
Calls of active or inactive are those of the source. The rule behind the calls is not given here.

Legend:
Type in all cases: functional, cell-based
HeLa [1] = experiment: Inhibition of cell division in human HeLa cells at 50 uM measured within 3 hrs by real-time digital microscopy
HeLa [2] = experiment: Induction of apoptosis in human HeLa cells at 50 uM measured within 24 hrs by real-time digital microscopy
HeLa [3] = experiment: Induction of apoptosis in human HeLa cells at 50 uM assessed as appearance of elongated cellular morphology incubated for 72 hrs by Hoechst 33342 staining based microscopic method
HeLa [4] = experiment: Induction of morphological alteration in human HeLa cells at 50 uM measured within 3 hrs by real-time digital microscopy
HeLa [5] = experiment: Cytotoxicity against human HeLa cells incubated for 72 hrs by WST-8 assay
HeLa [6] = experiment: Induction of apoptosis in human HeLa cells at 50 uM assessed as nuclear fragmentation incubated for 72 hrs by Hoechst 33342 staining based microscopic method

| SMILES | inhibition (HeLa [1]) | Activity (HeLa [2]) | Activity (HeLa [3]) | Activity (HeLa [4]) | Activity (HeLa [5]) | IC50 (HeLa [5]) [µM] | Activity (HeLa [6]) |
| --- | --- | --- | --- | --- | --- | --- | --- |
| COc1cc(C[C@H](C)N)cc(O)c1-c1ccc(OC)c2c(OC)cc(C)cc12 (atropisomer P) | Active | Active | Active | Active | Dose-dependent effect | 11.2 | Active |
| COc1cc(C[C@H](C)N)cc(O)c1-c1c(C)cc(OC)c2c(OC)cccc12 (atropisomer P) |  |  |  |  |  | 72.4 |  |
| CN[C@@H](C)Cc1cc(O)c(-c2c(C)cc(OC)c3c(OC)cccc23)c(OC)c1 (atropisomer P) |  |  |  |  |  | 52.6 |  |
